Results on eight compounds are retold here after US9340590B2 (priority 2011, dated 2016).

Read-outs that look alike come from different tables or passages of the source.

Assay in all cases: cell-based
The target in one experiment is hNav1.7 (Homo sapiens, UniProt Q15858). In kind it is cell-based.
The next experiment deals with hNav1.5 (Homo sapiens, UniProt Q14524).
The target of a further experiment is hNav1.3 (Homo sapiens, UniProt Q9NY46). Particulars: IonWorks Quattro, use-dependent protocol, hNav1.3; read-out: IWQ Use Nav1.3.
[1] abbreviates: IonWorks Quattro, use-dependent protocol, hNav1.7, read-out: IWQ Use Nav1.7.
[2] abbreviates: IonWorks Quattro, use-dependent protocol, hNav1.5, read-out: IWQ Use Nav1.5.

Sequence of hNav1.5 (Q14524 whole entry, looked up): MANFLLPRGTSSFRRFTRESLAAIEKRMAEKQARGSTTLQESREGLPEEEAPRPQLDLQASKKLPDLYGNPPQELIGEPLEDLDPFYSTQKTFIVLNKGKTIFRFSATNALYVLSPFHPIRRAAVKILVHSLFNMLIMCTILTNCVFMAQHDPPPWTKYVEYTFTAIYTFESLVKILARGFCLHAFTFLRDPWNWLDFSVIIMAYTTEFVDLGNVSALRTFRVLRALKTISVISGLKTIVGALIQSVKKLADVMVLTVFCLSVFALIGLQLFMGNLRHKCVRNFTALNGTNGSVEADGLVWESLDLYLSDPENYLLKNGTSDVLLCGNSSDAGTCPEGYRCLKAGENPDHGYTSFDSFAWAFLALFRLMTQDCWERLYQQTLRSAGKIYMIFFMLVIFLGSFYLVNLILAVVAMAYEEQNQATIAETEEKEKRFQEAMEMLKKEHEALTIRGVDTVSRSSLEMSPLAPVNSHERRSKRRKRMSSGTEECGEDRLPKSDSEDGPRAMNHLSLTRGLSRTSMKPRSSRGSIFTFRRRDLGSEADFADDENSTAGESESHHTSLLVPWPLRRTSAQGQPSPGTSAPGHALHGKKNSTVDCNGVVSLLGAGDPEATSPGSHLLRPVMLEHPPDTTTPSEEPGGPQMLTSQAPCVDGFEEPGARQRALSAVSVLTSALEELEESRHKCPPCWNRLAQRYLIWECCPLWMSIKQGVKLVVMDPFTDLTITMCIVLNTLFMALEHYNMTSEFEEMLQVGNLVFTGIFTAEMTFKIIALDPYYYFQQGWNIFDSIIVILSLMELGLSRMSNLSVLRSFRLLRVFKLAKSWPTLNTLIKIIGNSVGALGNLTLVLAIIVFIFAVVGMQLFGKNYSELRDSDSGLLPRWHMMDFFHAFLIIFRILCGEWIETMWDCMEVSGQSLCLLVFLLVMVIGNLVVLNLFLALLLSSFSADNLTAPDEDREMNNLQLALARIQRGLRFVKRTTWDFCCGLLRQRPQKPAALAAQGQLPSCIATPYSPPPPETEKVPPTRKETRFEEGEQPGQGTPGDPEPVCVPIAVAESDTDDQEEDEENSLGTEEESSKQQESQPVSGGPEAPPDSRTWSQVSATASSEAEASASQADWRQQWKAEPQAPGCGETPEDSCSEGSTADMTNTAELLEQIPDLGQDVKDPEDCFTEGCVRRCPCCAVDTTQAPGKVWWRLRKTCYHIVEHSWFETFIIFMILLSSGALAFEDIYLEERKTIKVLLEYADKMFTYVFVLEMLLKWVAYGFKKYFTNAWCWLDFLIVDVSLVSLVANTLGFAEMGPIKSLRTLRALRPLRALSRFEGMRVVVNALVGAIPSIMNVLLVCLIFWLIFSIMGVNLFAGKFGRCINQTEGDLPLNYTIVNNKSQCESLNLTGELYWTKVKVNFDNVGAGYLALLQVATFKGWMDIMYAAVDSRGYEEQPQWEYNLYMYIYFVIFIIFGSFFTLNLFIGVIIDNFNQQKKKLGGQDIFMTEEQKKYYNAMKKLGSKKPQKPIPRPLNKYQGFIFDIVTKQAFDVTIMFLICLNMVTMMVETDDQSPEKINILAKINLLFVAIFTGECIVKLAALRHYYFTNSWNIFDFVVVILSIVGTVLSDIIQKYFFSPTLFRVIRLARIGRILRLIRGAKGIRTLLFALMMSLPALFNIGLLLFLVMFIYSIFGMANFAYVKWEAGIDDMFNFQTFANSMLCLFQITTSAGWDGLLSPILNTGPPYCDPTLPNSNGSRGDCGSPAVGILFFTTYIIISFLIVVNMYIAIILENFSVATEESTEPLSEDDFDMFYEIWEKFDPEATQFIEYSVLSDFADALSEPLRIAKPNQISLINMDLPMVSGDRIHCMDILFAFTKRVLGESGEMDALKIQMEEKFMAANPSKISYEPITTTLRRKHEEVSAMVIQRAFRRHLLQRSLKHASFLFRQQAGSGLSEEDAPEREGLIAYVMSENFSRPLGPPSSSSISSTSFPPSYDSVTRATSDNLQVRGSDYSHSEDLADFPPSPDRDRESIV
Sequence of hNav1.7 (Q15858 whole entry, looked up): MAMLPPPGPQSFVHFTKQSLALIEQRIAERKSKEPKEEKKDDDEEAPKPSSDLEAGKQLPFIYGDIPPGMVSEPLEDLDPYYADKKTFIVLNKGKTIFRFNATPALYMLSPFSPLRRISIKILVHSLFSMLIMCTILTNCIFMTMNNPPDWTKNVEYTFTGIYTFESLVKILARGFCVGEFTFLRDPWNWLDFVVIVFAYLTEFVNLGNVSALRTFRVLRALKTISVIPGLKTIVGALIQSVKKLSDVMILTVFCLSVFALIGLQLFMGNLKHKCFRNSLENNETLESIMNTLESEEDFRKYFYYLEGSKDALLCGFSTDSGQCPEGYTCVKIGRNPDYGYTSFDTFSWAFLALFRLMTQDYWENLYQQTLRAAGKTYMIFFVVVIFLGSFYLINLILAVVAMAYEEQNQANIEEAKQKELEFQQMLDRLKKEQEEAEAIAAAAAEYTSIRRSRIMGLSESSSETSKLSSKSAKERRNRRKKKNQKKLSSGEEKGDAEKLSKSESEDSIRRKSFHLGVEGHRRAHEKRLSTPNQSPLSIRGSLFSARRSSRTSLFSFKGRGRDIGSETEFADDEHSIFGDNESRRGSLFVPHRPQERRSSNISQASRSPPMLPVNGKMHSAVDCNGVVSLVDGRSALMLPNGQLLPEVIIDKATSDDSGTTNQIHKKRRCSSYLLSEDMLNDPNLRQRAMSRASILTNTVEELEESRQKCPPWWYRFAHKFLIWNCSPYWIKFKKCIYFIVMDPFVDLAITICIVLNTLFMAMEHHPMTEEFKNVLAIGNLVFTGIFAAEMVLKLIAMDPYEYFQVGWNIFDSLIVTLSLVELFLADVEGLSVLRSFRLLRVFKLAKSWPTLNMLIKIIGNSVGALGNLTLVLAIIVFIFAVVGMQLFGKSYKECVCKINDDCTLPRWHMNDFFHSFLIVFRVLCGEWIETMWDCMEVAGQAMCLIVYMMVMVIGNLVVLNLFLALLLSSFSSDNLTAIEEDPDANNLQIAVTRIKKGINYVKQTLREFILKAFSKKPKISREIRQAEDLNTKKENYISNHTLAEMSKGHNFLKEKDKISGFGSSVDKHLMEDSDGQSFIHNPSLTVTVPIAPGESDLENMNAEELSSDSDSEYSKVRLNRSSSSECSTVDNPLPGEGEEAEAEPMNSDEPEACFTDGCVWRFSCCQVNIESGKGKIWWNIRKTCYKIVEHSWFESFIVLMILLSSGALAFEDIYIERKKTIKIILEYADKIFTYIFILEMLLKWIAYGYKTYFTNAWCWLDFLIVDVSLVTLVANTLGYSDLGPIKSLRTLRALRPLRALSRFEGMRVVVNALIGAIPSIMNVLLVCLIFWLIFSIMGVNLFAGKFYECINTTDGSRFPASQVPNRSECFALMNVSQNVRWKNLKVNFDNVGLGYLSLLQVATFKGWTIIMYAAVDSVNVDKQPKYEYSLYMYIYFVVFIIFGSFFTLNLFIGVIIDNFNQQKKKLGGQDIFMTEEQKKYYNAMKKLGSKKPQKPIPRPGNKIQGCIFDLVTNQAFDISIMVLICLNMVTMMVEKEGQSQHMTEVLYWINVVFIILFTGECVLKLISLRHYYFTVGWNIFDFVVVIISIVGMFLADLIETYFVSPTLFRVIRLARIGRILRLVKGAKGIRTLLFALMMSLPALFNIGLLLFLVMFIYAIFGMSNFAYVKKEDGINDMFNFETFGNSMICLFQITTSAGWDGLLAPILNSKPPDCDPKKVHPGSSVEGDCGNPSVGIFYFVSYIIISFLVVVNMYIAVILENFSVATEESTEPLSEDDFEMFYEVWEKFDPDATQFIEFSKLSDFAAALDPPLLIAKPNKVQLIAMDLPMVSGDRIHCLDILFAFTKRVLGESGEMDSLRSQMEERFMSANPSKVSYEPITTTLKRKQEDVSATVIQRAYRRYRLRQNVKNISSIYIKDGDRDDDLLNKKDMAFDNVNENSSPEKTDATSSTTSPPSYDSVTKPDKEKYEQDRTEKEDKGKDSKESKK

Regarding `CC[C@H](C)[C@@H]1NC(=O)[C@@H]2CSSC[C@@H]3NC(=O)[C@H](C(C)C)NC(=O)[C@H](CC(C)C)NC(=O)[C@H](CC(N)=O)NC(=O)[C@@H]4CCCN4C(=O)[C@H](CCCNC(=N)N)NC(=O)[C@H](CSSC[C@H](NC(=O)[C@@H](N)CC(=O)O)C(=O)N[C@@H](CC(C)C)C(=O)NCC(=O)N[C@@H](Cc4cccs4)C(=O)N[C@@H](CCSC)C(=O)N[C@@H](CCCNC(=N)N)C(=O)N[C@@H](CCCCN)C(=O)N2)NC(=O)[C@H](CSSC[C@@H](C(=O)N[C@@H](CCCCN)C(=O)N[C@@H](Cc2ccc(O)cc2)C(=O)N[C@H](C(=O)N[C@@H](Cc2ccccc2)C(N)=O)C(C)C)NC(=O)[C@H](Cc2c[nH]c4ccccc24)NC(=O)[C@H](CCCCN)NC(=O)[C@H](Cc2c[nH]cn2)NC(=O)[C@H]([C@@H](C)O)NC(=O)[C@H](CCCNC(=N)N)NC(=O)[C@H](CO)NC3=O)NC(=O)[C@H](CCCCN)NC(=O)[C@H](CC(=O)O)NC(=O)[C@H](CC(N)=O)NC(=O)[C@H](CC(=O)O)NC(=O)[C@@H]2CCCN2C1=O` [compound 682], the IC50 at hNav1.7 (setting [1]) was 0.11 µM; at hNav1.5 (setting [2]) it was over 5 µM; on hNav1.3 it was 0.28 µM.
For the compound `CC[C@H](C)[C@@H]1NC(=O)[C@@H]2CSSC[C@@H]3NC(=O)[C@H](C(C)C)NC(=O)[C@H](CC(C)C)NC(=O)[C@H](CC(N)=O)NC(=O)[C@@H]4CCCN4C(=O)[C@H](CCCNC(=N)N)NC(=O)[C@H](CSSC[C@H](NC(=O)[C@@H](N)CC(=O)O)C(=O)N[C@@H](CC(C)C)C(=O)NCC(=O)N[C@@H](C4CCCC4)C(=O)N[C@@H](CCSC)C(=O)N[C@@H](CCCNC(=N)N)C(=O)N[C@@H](CCCCN)C(=O)N2)NC(=O)[C@H](CSSC[C@@H](C(=O)N[C@@H](CCCCN)C(=O)N[C@@H](Cc2ccc(O)cc2)C(=O)N[C@H](C(=O)N[C@@H](Cc2ccccc2)C(N)=O)C(C)C)NC(=O)[C@H](Cc2c[nH]c4ccccc24)NC(=O)[C@H](CCCCN)NC(=O)[C@H](Cc2cnc[nH]2)NC(=O)[C@H]([C@@H](C)O)NC(=O)[C@H](CCCNC(=N)N)NC(=O)[C@H](CO)NC3=O)NC(=O)[C@H](CCCCN)NC(=O)[C@H](CC(=O)O)NC(=O)[C@H](CC(N)=O)NC(=O)[C@H](CC(=O)O)NC(=O)[C@@H]2CCCN2C1=O` [compound 683], the figures for the IC50 at hNav1.7 (setting [1]), on hNav1.5 (IWQ Use Nav1.5) and on hNav1.3 were 0.23 µM, over 5 µM and 0.63 µM, respectively.
Take `CC[C@H](C)[C@@H]1NC(=O)[C@@H]2CSSC[C@@H]3NC(=O)[C@H](C(C)C)NC(=O)[C@H](CC(C)C)NC(=O)[C@H](CC(N)=O)NC(=O)[C@@H]4CCCN4C(=O)[C@H](CCCNC(=N)N)NC(=O)[C@H](CSSC[C@H](NC(=O)[C@@H](N)CC(=O)O)C(=O)N[C@@H](CC(C)C)C(=O)NCC(=O)N[C@@H](C4CCCCC4)C(=O)N[C@@H](CCSC)C(=O)N[C@@H](CCCNC(=N)N)C(=O)N[C@@H](CCCCN)C(=O)N2)NC(=O)[C@H](CSSC[C@@H](C(=O)N[C@@H](CCCCN)C(=O)N[C@@H](Cc2ccc(O)cc2)C(=O)N[C@H](C(=O)N[C@@H](Cc2ccccc2)C(N)=O)C(C)C)NC(=O)[C@H](Cc2c[nH]c4ccccc24)NC(=O)[C@H](CCCCN)NC(=O)[C@H](Cc2cnc[nH]2)NC(=O)[C@H]([C@@H](C)O)NC(=O)[C@H](CCCNC(=N)N)NC(=O)[C@H](CO)NC3=O)NC(=O)[C@H](CCCCN)NC(=O)[C@H](CC(=O)O)NC(=O)[C@H](CC(N)=O)NC(=O)[C@H](CC(=O)O)NC(=O)[C@@H]2CCCN2C1=O` [compound 684]: the IC50 at hNav1.7 (setting [1]) is 0.13 µM; at hNav1.5 (setting [2]), over 5 µM; at hNav1.3, 0.36 µM.
For `CC[C@H](C)[C@@H]1NC(=O)[C@@H]2CSSC[C@@H]3NC(=O)[C@H](C(C)C)NC(=O)[C@H](CC(C)C)NC(=O)[C@H](CC(N)=O)NC(=O)[C@@H]4CCCN4C(=O)[C@H](CCCNC(=N)N)NC(=O)[C@H](CSSC[C@H](NC(=O)[C@@H](N)CC(=O)O)C(=O)N[C@@H](CC(C)C)C(=O)NCC(=O)N[C@@H](Cc4ccc(C(=O)c5ccccc5)cc4)C(=O)N[C@@H](CCSC)C(=O)N[C@@H](CCCNC(=N)N)C(=O)N[C@@H](CCCCN)C(=O)N2)NC(=O)[C@H](CSSC[C@@H](C(=O)N[C@@H](CCCCN)C(=O)N[C@@H](Cc2ccc(O)cc2)C(=O)N[C@H](C(=O)N[C@@H](Cc2ccccc2)C(N)=O)C(C)C)NC(=O)[C@H](Cc2c[nH]c4ccccc24)NC(=O)[C@H](CCCCN)NC(=O)[C@H](Cc2c[nH]cn2)NC(=O)[C@H]([C@@H](C)O)NC(=O)[C@H](CCCNC(=N)N)NC(=O)[C@H](CO)NC3=O)NC(=O)[C@H](CCCCN)NC(=O)[C@H](CC(=O)O)NC(=O)[C@H](CC(N)=O)NC(=O)[C@H](CC(=O)O)NC(=O)[C@@H]2CCCN2C1=O` [compound 685], in that order: 0.68 µM, over 5 µM and 0.15 µM.
Regarding `CC[C@H](C)[C@@H]1NC(=O)[C@@H]2CSSC[C@@H]3NC(=O)[C@H](C(C)C)NC(=O)[C@H](CC(C)C)NC(=O)[C@H](CC(N)=O)NC(=O)[C@@H]4CCCN4C(=O)[C@H](CCCNC(=N)N)NC(=O)[C@H](CSSC[C@H](NC(=O)[C@@H](N)CC(=O)O)C(=O)N[C@@H](CC(C)C)C(=O)NCC(=O)N[C@@H](Cc4ccc(C)cc4)C(=O)N[C@@H](CCSC)C(=O)N[C@@H](CCCNC(=N)N)C(=O)N[C@@H](CCCCN)C(=O)N2)NC(=O)[C@H](CSSC[C@@H](C(=O)N[C@@H](CCCCN)C(=O)N[C@@H](Cc2ccc(O)cc2)C(=O)N[C@H](C(=O)N[C@@H](Cc2ccccc2)C(N)=O)C(C)C)NC(=O)[C@H](Cc2c[nH]c4ccccc24)NC(=O)[C@H](CCCCN)NC(=O)[C@H](Cc2c[nH]cn2)NC(=O)[C@H]([C@@H](C)O)NC(=O)[C@H](CCCNC(=N)N)NC(=O)[C@H](CO)NC3=O)NC(=O)[C@H](CCCCN)NC(=O)[C@H](CC(=O)O)NC(=O)[C@H](CC(N)=O)NC(=O)[C@H](CC(=O)O)NC(=O)[C@@H]2CCCN2C1=O` [compound 686], the IC50 was 0.49 µM at hNav1.7 (setting [1]), over 5 µM against hNav1.5 (IWQ Use Nav1.5) and 0.18 µM at hNav1.3.
As to `CC[C@H](C)[C@@H]1NC(=O)[C@@H]2CSSC[C@@H]3NC(=O)[C@H](C(C)C)NC(=O)[C@H](CC(C)C)NC(=O)[C@H](CC(N)=O)NC(=O)[C@@H]4CCCN4C(=O)[C@H](CCCNC(=N)N)NC(=O)[C@H](CSSC[C@H](NC(=O)[C@@H](N)CC(=O)O)C(=O)N[C@@H](CC(C)C)C(=O)NCC(=O)N[C@@H](Cc4ccc(C(C)(C)C)cc4)C(=O)N[C@@H](CCSC)C(=O)N[C@@H](CCCNC(=N)N)C(=O)N[C@@H](CCCCN)C(=O)N2)NC(=O)[C@H](CSSC[C@@H](C(=O)N[C@@H](CCCCN)C(=O)N[C@@H](Cc2ccc(O)cc2)C(=O)N[C@H](C(=O)N[C@@H](Cc2ccccc2)C(N)=O)C(C)C)NC(=O)[C@H](Cc2c[nH]c4ccccc24)NC(=O)[C@H](CCCCN)NC(=O)[C@H](Cc2c[nH]cn2)NC(=O)[C@H]([C@@H](C)O)NC(=O)[C@H](CCCNC(=N)N)NC(=O)[C@H](CO)NC3=O)NC(=O)[C@H](CCCCN)NC(=O)[C@H](CC(=O)O)NC(=O)[C@H](CC(N)=O)NC(=O)[C@H](CC(=O)O)NC(=O)[C@@H]2CCCN2C1=O` [compound 687], the IC50 was 0.27 µM on hNav1.7 (setting [1]), over 5 µM against hNav1.5 (IWQ Use Nav1.5) and 0.13 µM at hNav1.3.
Consider `CC[C@H](C)[C@@H]1NC(=O)[C@@H]2CSSC[C@@H]3NC(=O)[C@H](C(C)C)NC(=O)[C@H](CC(C)C)NC(=O)[C@H](CC(N)=O)NC(=O)[C@@H]4CCCN4C(=O)[C@H](CCCNC(=N)N)NC(=O)[C@H](CSSC[C@H](NC(=O)[C@@H](N)CC(=O)O)C(=O)N[C@@H](CC(C)C)C(=O)NCC(=O)N(C)[C@@H](CC(C)C)C(=O)N[C@@H](CCSC)C(=O)N[C@@H](CCCNC(=N)N)C(=O)N[C@@H](CCCCN)C(=O)N2)NC(=O)[C@H](CSSC[C@@H](C(=O)N[C@@H](CCCCN)C(=O)N[C@@H](Cc2ccc(O)cc2)C(=O)N[C@H](C(=O)N[C@@H](Cc2ccccc2)C(N)=O)C(C)C)NC(=O)[C@H](Cc2c[nH]c4ccccc24)NC(=O)[C@H](CCCCN)NC(=O)[C@H](Cc2cnc[nH]2)NC(=O)[C@H]([C@@H](C)O)NC(=O)[C@H](CCCNC(=N)N)NC(=O)[C@H](CO)NC3=O)NC(=O)[C@H](CCCCN)NC(=O)[C@H](CC(=O)O)NC(=O)[C@H](CC(N)=O)NC(=O)[C@H](CC(=O)O)NC(=O)[C@@H]2CCCN2C1=O` [compound 688], for which the IC50 on hNav1.7 is 0.29 µM; at hNav1.5 (IWQ Use Nav1.5), over 5 µM; at hNav1.3, 0.73 µM.
Turning to `CC[C@H](C)[C@@H]1NC(=O)[C@@H]2CSSC[C@@H]3NC(=O)[C@H](C(C)C)NC(=O)[C@H](CC(C)C)NC(=O)[C@H](CC(N)=O)NC(=O)[C@@H]4CCCN4C(=O)[C@H](CCCNC(=N)N)NC(=O)[C@H](CSSC[C@H](NC(=O)[C@@H](N)CC(=O)O)C(=O)N[C@@H](CC(C)C)C(=O)NCC(=O)N[C@@H](Cc4ccccc4Cl)C(=O)N[C@@H](CCSC)C(=O)N[C@@H](CCCNC(=N)N)C(=O)N[C@@H](CCCCN)C(=O)N2)NC(=O)[C@H](CSSC[C@@H](C(=O)N[C@@H](CCCCN)C(=O)N[C@@H](Cc2ccc(O)cc2)C(=O)N[C@H](C(=O)N[C@@H](Cc2ccccc2)C(N)=O)C(C)C)NC(=O)[C@H](Cc2c[nH]c4ccccc24)NC(=O)[C@H](CCCCN)NC(=O)[C@H](Cc2c[nH]cn2)NC(=O)[C@H]([C@@H](C)O)NC(=O)[C@H](CCCNC(=N)N)NC(=O)[C@H](CO)NC3=O)NC(=O)[C@H](CCCCN)NC(=O)[C@H](CC(=O)O)NC(=O)[C@H](CC(N)=O)NC(=O)[C@H](CC(=O)O)NC(=O)[C@@H]2CCCN2C1=O` [compound 689], the IC50 at hNav1.7 (setting [1]) is 0.13 µM; at hNav1.5 (setting [2]) it was over 5 µM; on hNav1.3 it was 0.11 µM.
